Source: patent publication US20150258192A1, “COMPOSITIONS AND METHODS FOR PREVENTING OR TREATING CHRONIC LUNG ALLOGRAFT DYSFUNCTION (CLAD) AND IDIOPATHIC PULMONARY FIBROSIS (IPF)” (priority 2014, published 2015)
No end group written: not given here.

Experiments:
CK1γ2(h) = CK1γ2(h) (Homo sapiens, UniProt P78368); test: Kinase Profiling Assay; type: biochemical; settings: peptide 100 μM
Outline: (§1)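 Activity remaining relative to an uninhibited control was determined by scintillation counting of labeled substrate bound to a negatively charged filter. Radiolabeled phosphate came from ATP; the substrate carried positive charge. Duplicate measurements, within a 266-kinase human panel.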

c-RAF(h) = c-RAF(h) (Homo sapiens, UniProt P04049); test: Kinase Profiling Assay; type: biochemical; settings: peptide 100 μM
Outline: as §1

PAK6(h) = PAK6(h) (Homo sapiens, UniProt Q9NQU5); test: Kinase Profiling Assay; type: biochemical; settings: peptide 100 μM
PAK6(h), sequence (Q9NQU5 whole entry): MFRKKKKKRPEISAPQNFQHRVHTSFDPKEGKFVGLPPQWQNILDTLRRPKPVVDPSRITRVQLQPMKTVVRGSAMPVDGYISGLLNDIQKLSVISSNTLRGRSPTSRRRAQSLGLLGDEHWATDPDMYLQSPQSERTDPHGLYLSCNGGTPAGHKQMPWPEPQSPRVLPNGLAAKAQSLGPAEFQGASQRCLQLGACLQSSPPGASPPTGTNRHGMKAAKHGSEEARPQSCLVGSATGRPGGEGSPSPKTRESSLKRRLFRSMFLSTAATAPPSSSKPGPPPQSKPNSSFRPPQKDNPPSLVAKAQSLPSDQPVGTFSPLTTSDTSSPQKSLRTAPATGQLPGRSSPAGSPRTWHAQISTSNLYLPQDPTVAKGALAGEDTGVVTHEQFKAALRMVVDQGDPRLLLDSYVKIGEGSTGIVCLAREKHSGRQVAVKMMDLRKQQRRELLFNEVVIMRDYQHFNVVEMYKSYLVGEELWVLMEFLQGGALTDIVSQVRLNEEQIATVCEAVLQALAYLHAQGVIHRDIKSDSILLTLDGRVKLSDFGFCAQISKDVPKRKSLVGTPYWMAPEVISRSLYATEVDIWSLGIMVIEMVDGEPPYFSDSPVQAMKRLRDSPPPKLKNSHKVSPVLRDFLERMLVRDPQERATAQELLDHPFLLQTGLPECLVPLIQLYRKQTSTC
Outline: as §1

splenic T cells = test: Autologous mixed lymphocyte reaction (MLR) of splenic T cells from treated bleomycin mice; type: in vivo, mouse
Description: Recent studies highlighted a key role for T lymphocytes in bleomycin-induced fibrosis (Wilson, M. et al., The Journal of Experimental Medicine, 207(3): 535-552, 2010). […] Specifically, the ability of C57BL/6 purified antigen-presenting cells to induce proliferation in C57BL/6 T lymphocytes was examined in the assay.
C57-BL/6 mice were subjected to bleomycin injury at day 0. […] Splenic T cells were isolated and cultured alone or in the presence of autologous antigen presenting cells (APCs from C57-BL/6 mice) or stimulated with antibodies against CD3 (α-CD3) for 48 h. The cells then were radiolabeled with […] thymidine for 16 h and assessed for proliferation rates.
The viability of the T cells also was confirmed by stimulating the cells with antibodies against α-CD3, a polyclonal T cell activator. α-CD3 induced robust proliferation of the cells irrespective of the treatment group.

FGFR2(N549H)(h) = FGFR2(N549H)(h) (Homo sapiens, UniProt P21802, N549H); test: Kinase Profiling Assay; type: biochemical; settings: peptide 100 μM
FGFR2(N549H)(h), sequence (P21802 22-821 N549H): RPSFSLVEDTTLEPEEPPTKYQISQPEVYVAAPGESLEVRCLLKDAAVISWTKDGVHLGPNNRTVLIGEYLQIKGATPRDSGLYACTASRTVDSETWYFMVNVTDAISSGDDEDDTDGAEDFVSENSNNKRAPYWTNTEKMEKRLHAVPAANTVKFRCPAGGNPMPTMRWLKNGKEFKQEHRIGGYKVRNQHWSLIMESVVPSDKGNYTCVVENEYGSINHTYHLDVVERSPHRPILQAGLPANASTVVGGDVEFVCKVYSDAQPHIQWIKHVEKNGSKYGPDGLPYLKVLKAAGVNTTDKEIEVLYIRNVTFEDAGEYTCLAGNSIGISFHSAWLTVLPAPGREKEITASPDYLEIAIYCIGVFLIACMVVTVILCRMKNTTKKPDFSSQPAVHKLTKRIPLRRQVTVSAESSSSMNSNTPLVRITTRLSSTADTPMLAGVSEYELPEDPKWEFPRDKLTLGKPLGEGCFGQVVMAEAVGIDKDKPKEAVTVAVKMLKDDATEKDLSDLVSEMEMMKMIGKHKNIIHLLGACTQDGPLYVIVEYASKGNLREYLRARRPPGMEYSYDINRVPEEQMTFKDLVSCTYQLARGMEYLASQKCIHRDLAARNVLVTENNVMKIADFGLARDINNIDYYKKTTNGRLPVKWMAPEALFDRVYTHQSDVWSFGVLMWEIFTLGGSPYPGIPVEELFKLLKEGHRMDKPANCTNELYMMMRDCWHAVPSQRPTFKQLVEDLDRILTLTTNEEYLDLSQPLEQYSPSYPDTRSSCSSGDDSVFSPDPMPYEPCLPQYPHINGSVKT
Outline: as §1

[1] = system: bleomycin-induced lung fibrosis in C57BL/6 mice; test: Bleomycin mouse model of pulmonary fibrosis (IPF treatment model); type: in vivo; settings: for lung architecture and collagen distribution (H&E, Masson's trichrome), day 28: daily day 14-28 post bleomycin
Description: A mouse model of pulmonary fibrosis was generated by administering 0.025 U of bleomycin/PBS intratracheally to C57BL/6 mice. […] At 21 day post bleomycin delivery (for prevention model) or 28 post bleomycin delivery (for treatment model), groups of mice were sacrificed with a sodium pentobarbital injection (120 mg/kg) and the chest cavity was opened. The right mainstem bronchus was ligated and the right lung was removed. The trachea was cannulated and the left lung was perfused with 4% formaldehyde at 21 cm H2O pressure. The tissue blocks then were embedded in paraffin, and […] sections were prepared for staining. Sections from each animal were stained with hematoxylin and eosin (H&E) to visualize cells or with Masson's Trichrome staining to highlight collagen deposition. […] Stained sections were mounted onto a labeled glass slide with organic mounting medium.
The classic bleomycin model, as depicted in FIG. 10, has been used widely in the literature in the pre-fibrotic stage to test efficacy of any intervention.
More specifically, fibrotic loci in the lungs were induced by delivering intratracheally about 0.025 U of bleomycin (dissolved in PBS) to C57BL/6 mice. […] Mice were sacrificed with a sodium pentobarbital injection (120 mg/kg) and the chest cavity was opened. The right mainstem bronchus was ligated and the right lung is removed. The trachea was cannulated and the left lung was perfused with 4% formaldehyde at 21 cm H2O pressure. The tissue blocks then were embedded in paraffin, and […] sections were prepared, and stained with hematoxylin and eosin (H&E; for pathological examination) or Masson's Trichrome (for collagen staining)
Next, collagen deposition was determined quantitatively by using the standard hydroxyproline assay with whole left lung. Total collagen (soluble and insoluble) deposition was assessed by analyzing hydroxyproline concentrations in murine lungs day 28 post bleomycin injury.

[2] = system: phospho-Thr^334-MAPKAPK2 (activated form of MK2); test: Anti-phospho-Thr334-MAPKAPK2 staining of lung sections, bleomycin treatment model; type: in vivo, mouse; settings: day 14-28
Description: C57-BL/6 mice were subjected to bleomycin injury at day 0. […] Original magnifications: 20×.
Briefly, C57-BL/6 mice were subjected to bleomycin injury at day 0. […] Formalin-fixed lung tissue sections were immunostained against phospho-Thr^334 MK2. Control staining was with biotinylated secondary IgG antibody. Streptavidin-conjugated horseradish peroxidase was used with 3,3′-diaminobenzidene as substrate and nuclei were counterstained with hematoxylin.

CLK2(h) = CLK2(h) (Homo sapiens, UniProt P49760); test: Kinase Profiling Assay; type: biochemical; settings: peptide 100 μM
CLK2(h), sequence (P49760 whole entry): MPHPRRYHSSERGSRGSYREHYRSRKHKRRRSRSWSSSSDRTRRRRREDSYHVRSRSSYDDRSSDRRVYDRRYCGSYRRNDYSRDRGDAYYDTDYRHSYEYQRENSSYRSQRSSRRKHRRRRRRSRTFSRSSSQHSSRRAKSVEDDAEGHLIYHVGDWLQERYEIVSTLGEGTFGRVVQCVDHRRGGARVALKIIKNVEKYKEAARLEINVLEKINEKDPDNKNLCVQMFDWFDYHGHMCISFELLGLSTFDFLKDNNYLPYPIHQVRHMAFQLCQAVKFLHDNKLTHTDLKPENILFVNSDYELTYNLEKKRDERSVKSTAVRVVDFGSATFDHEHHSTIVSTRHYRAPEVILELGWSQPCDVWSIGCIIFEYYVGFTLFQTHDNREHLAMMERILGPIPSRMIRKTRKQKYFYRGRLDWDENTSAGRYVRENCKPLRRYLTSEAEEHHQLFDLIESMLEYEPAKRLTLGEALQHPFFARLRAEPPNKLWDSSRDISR
Outline: as §1

Plk1(h) = Plk1(h) (Homo sapiens, UniProt P53350); test: Kinase Profiling Assay; type: biochemical; settings: peptide 100 μM
Plk1(h), sequence (P53350 whole entry): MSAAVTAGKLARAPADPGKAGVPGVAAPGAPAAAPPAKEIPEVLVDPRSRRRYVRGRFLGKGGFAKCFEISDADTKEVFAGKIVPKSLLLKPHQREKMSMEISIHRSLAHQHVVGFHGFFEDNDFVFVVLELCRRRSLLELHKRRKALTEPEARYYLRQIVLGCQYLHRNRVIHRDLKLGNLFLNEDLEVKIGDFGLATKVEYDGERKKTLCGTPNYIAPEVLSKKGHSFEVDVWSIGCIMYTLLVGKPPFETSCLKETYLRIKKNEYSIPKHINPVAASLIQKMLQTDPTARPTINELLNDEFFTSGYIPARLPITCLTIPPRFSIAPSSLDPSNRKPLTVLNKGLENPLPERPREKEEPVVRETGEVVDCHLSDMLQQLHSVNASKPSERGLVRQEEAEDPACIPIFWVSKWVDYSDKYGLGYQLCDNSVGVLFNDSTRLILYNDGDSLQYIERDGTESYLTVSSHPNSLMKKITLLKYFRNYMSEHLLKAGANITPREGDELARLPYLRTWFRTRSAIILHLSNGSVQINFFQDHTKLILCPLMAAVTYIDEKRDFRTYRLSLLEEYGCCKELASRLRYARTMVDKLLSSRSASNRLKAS
Outline: as §1

CK1γ1(h) = CK1γ1(h) (Homo sapiens, UniProt Q9HCP0); test: Kinase Profiling Assay; type: biochemical; settings: peptide 100 μM
CK1γ1(h), sequence (Q9HCP0 whole entry): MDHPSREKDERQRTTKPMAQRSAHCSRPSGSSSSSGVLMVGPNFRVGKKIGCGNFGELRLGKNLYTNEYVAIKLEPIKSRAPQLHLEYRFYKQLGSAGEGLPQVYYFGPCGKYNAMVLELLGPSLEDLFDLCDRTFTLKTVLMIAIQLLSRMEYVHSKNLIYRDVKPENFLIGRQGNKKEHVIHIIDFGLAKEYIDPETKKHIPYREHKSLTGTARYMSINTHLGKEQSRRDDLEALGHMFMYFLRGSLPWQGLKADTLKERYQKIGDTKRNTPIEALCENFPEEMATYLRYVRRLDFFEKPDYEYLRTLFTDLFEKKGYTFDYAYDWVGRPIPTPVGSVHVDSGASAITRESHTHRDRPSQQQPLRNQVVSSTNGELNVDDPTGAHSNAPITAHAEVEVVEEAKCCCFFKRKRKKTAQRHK
Outline: as §1

CK1γ2(h), sequence (P78368 whole entry): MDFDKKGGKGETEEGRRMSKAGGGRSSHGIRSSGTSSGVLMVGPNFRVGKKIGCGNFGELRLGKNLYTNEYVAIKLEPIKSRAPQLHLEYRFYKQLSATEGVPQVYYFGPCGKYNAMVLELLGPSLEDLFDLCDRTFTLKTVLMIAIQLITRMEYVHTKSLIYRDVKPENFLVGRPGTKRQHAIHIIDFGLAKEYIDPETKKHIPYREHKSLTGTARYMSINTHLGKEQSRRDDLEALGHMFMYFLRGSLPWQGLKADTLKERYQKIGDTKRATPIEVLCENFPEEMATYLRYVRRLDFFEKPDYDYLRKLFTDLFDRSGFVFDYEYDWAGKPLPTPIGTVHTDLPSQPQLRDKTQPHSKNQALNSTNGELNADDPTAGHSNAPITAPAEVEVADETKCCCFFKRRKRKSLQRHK

FAKLAARLYRKALARQLGVAA [MMI-0300]
% activity (CK1γ2(h)): 123%

HRRIKAWLKKIKALARQLGVAA (Mammal) [MMI-0500]
% activity (c-RAF(h)): 19%

KAFAKLAARLYRKALARQLGVAA [MMI-0400]
% activity (PAK6(h)): 100%

YARAAARQARAKALARQLGVAA [MMI-0100]
toxicity (splenic T cell response to α-CD3) (splenic T cells; 50 μg/kg/day): no toxicity
systemic distribution (splenic T cells; nebulized delivery, inferred from lack of splenic T cell response): little systemic distribution
% activity (FGFR2(N549H)(h)): 95%
progression of collagen deposition (hydroxyproline assay, whole left lung), day 28 ([1]; 50 μg/kg/day IP or nebulizer from day 14): significantly arrested further progression
lung architecture and collagen distribution (H&E, Masson's trichrome), day 28 ([1]; intraperitoneally): rescued
lung architecture and collagen distribution (H&E, Masson's trichrome), day 28 ([1]; locally applied to the lung (nebulized)): rescued
phospho-Thr^334-MAPKAPK2 staining ([2]; intraperitoneal 50 μg/kg daily): decreased
phospho-Thr^334-MAPKAPK2 staining ([2]; nebulized 50 μg/kg daily): decreased

YARAAARQARAKALNRQLGVA (Mammal) [MMI-0200]
% activity (CLK2(h)): 97%
% activity (Plk1(h)): 128%
% activity (CK1γ1(h)): 98%
